From US20230364193A1, “COMBINED DRUG FOR TREATING CORONARIVUS DISEASE 2019” (SICHUAN UNIVERSITY WEST CHINA HOSPITAL, priority 2020, published 2023)
Read-outs that look alike come from different tables or passages of the source.

Test system: SARS-CoV-2 virus
Test: microbe, parasite or virus in culture
Settings: Vero-E6

Structure (SMILES): CCN(CC)CCCC(C)Nc1ccnc2cc(Cl)ccc12 (stereo not drawn) [Chloroquine]
- EC50 (Severe acute respiratory syndrome coronavirus 2, Vero C1008, read-out: EC50 Experiment 1, MOI: 0.005 (50 PFU)): 1.7 µM
- EC50 (Severe acute respiratory syndrome coronavirus 2, Vero C1008, read-out: EC50 Experiment 1, MOI: 0.05 (500 PFU)): 3.65 µM
- EC50 (Severe acute respiratory syndrome coronavirus 2, Vero C1008, read-out: EC50 Experiment 1, MOI: 0.5 (5000 PFU)): 5.25 µM
- EC50 (Severe acute respiratory syndrome coronavirus 2, Vero C1008, read-out: EC50 Experiment 2, MOI: 0.005 (50 PFU)): 1.77 µM
- EC50 (Severe acute respiratory syndrome coronavirus 2, Vero C1008, read-out: EC50 Experiment 2, MOI: 0.05 (500 PFU)): 4.23 µM
- EC50 (Severe acute respiratory syndrome coronavirus 2, Vero C1008, read-out: EC50 Experiment 2, MOI: 0.5 (5000 PFU)): 5.72 µM
- EC50 (Severe acute respiratory syndrome coronavirus 2, Vero C1008, read-out: EC50 Experiment 3, MOI: 0.005 (50 PFU)): 2.34 µM
- EC50 (Severe acute respiratory syndrome coronavirus 2, Vero C1008, read-out: EC50 Experiment 3, MOI: 0.05 (500 PFU)): 2.34 µM
- EC50 (Severe acute respiratory syndrome coronavirus 2, Vero C1008, read-out: EC50 Experiment 3, MOI: 0.5 (5000 PFU)): 5.04 µM
- EC50 (Severe acute respiratory syndrome coronavirus 2, Vero C1008, read-out: EC50 means, MOI: 0.005 (50 PFU), mean of 3 experiments): 1.94 µM
- EC50 (Severe acute respiratory syndrome coronavirus 2, Vero C1008, read-out: EC50 means, MOI: 0.05 (500 PFU), mean of 3 experiments): 3.41 µM
- EC50 (Severe acute respiratory syndrome coronavirus 2, Vero C1008, read-out: EC50 means, MOI: 0.5 (5000 PFU), mean of 3 experiments): 5.34 µM
